Test results published in publication PMC6479402, “Anti-Herpetic, Anti-Dengue and Antineoplastic Activities of Simple and Heterocycle-Fused Derivatives of Terpenyl-1,4-Naphthoquinone and 1,4-Anthraquinone” (Molecules, 2019).
Where “and” joins values, the source holds several entries; their conditions need not be identical. Equal entries are not always repeated. Where two headings read alike, the source gives them in different places.

Legend:
Vero = experiment: MTT cytotoxicity assay, non-tumor cells; type: cell-based, Cercopithecus aethiops; details: for IC50: Chlorocebus sabaeus
Experimental: The in vitro cytotoxicity evaluation of quinones was performed using the 3-(4,5 dimethylthiazol-2-yl)-2,5-diphenyltetrazolium bromide (MTT, Sigma, Cream Ridge, NJ, USA) assay as described by Betancur-Galvis et al. 2002 [22]. Briefly, Vero and HeLa cell lines were seeded at 2.0 × 10^3 cells per well of 96-well plates in DMEM supplemented with 10% of inactivated FBS, and were incubated for 24 h at 37 °C, 5% CO2. Then, each diluted molecule was added to the cells and incubated for further 48 h at 37 °C, 5% CO2. Jurkat cell line at 3 × 10^3 cells per well in a 96-well round-bottomed plate and diluted substances in RPMI-1640 medium (Sigma) supplemented with 10% FBS were plated simultaneously. After 48 h of treatment at 37 °C, 5% CO2, the media was carefully removed and 28 µL of MTT solution (4 mg/mL) was added to each well, and the plates were incubated for 2 h at 37 °C, 5% CO2. The DMSO was then added to dissolve the formed formazan crystals and absorbance was determined spectrophotometrically at 570 nm.
The minimal dilution of compound that caused 50% inhibition of the cells (IC50) was calculated by linear regression analysis of the dose-response curves generated from the absorbance data with the statistical GraphPad Prisma 5.0. IC50 values were expressed as the mean ± standard deviation (M ± SD) of two independent experiments done in quadruplicate.

Jurkat = experiment: MTT cytotoxicity assay; type: cell-based; details: Homo sapiens, Jurkat ATCC TIB-152, 48 h, read-out: IC50 ± SD, Jurkat
Experimental: (§1) Then, each diluted molecule was added to the cells and incubated for further 48 h at 37 °C, 5% CO2. […] The DMSO was then added to dissolve the formed formazan crystals and absorbance was determined spectrophotometrically at 570 nm. […] IC50 values were expressed as the mean ± standard deviation (M ± SD) of two independent experiments done in quadruplicate.

HeLa = experiment: MTT cytotoxicity assay; type: cell-based; details: Homo sapiens, HeLa ATCC CRL-1958, 48 h, read-out: IC50 ± SD, HeLa
Experimental: as §1

[1] = test system: Human Herpesvirus type 1 (HHV-1); experiment: End-point titration technique (EPTT), anti-herpetic screening on infected Vero cells; type: cell-based; details: for Rf (reduction factor of the viral titer), HHV-1: 1 TCID50, 48 h
Experimental: (§2) The in vitro antiviral evaluation of the 27 substances against Human Herpesvirus type 1 (HHV-1) and 2 (HHV-2) was made on infected Vero cells, using the end-point titration technique (EPTT).
(§3) The antiviral activity of molecules against 1 and 10 Cell Culture Infectious Dose 50% (10TCID50) of HHV-1 and HHV-2, respectively, was determined using end-point titration technique (EPTT). Vero cells grown in 96-well plates at a density of 2.0 × 10^4 cells/well were incubated at 37 °C in 5% CO2 atmosphere until constitute 80% of cell monolayer. Then, viral suspensions of HHV-1 or HHV-2 with concentrations of 6.25 µg/mL to 50 µg/mL of compounds were performed in DMEM supplemented with 2% FBS containing 1% and 0.5% carboxymethylcellulose (CMC) for HHV-1 and HHV-2, respectively. Mixture was incubated during 15 minutes at room temperature and was added to the cell monolayer. After 48 h of incubation at 37 °C (5% CO2), the cytopathic effect was examined, the microplates were fixed with 3.5% formaldehyde and stained with 0.2% crystal violet. Two independent experiments by quadruplicate for each viral serotype and each were carried out. Positive controls, such as dextran sulfate (DS) and acyclovir (A) for early stages and late stages of infection, respectively, were included.

HHV-1 [2] = experiment: HHV-1 viral attachment assay on Vero cells (plaque reduction); type: cell-based, Human Herpesvirus 1; details: Human alphaherpesvirus 1, Vero
Experimental: (§4) The effect of NQ 4 in the initial phases of the HHV-1 viral replication was done as previously described by Cardozo et al., 2011 [53]. In the attachment assay, pre-chilled (1 h at 4 °C) Vero cell monolayers were exposed to viruses (100 PFU/well) in presence or absence of the compound and were incubated for 2 h at 4 °C. After incubation, the substance and unbounded viruses were removed with cold PBS; cells were overlaid with CMC 1% and incubated for 72 h at 37 °C (5% CO2). In the entry assay, pre-chilled cells were infected with viruses (100 PFU/well) and incubated for 2 h at 4 °C. After this time, the unbound viruses were removed with cold PBS; cells were treated with different concentrations of pre-warmed compound, and then incubated for 1 h at 37 °C. Unabsorbed viruses were inactivated using citrate buffer (pH = 3.0) and then cells were washed with PBS, overlaid with CMC 1%, and incubated for 72 h at 37 °C (5% CO2). In both assays, further procedures were the same mentioned previously for the plaque reduction assay and dextran sulfate (DS) was included as positive control.
(§5) In these tests, the evaluated NQ 4 concentration range was from 0.1 to 0.8 µg/mL and the effective concentration fifty (EC50), the concentration that reduces the 50% of plaque forming units, was determined from dose-effect curves by linear regression methods for each compound. […]

HHV-1 [3] = experiment: HHV-1 viral entry assay on Vero cells (plaque reduction); type: cell-based, Human Herpesvirus 1; details: 0.1–0.8 µg/mL
Experimental: as §4, §5

HHV-2 = experiment: Plaque reduction assay, simultaneous and post-infection treatment, Vero cells; type: cell-based, Human Herpesvirus 2; details: for Antiviral activity in simultaneous treatment, HHV-2: PFU, NQ 4 0.4–3.1 µg/mL, DS 5 µg/mL
Experimental: (§6) To define the stage of the viral replicative cycle where NQ 4 exerts its action, simultaneous and post-infection treatments against HHV-1 and HHV-2 were performed. […] First, we determined the inhibitory concentration 50% (IC50) for the compound and drug positive controls on infected cells and their effects on non-tumoral Vero cells, to define the concentration of evaluation and to calculate the antiviral selectivity index (SI). Then, the concentration of NQ 4 that reduced the number of viral plaques by 50% (EC50) was determined from the dose-response curves.
(§7) The potential antiviral mechanism of NQ 4 was evaluated by the plaque reduction assay as previously described by us. Vero cell monolayers grown in 24-well plates were infected with 100 PFU/well of each virus. For simultaneous treatment, the compound and the virus were added simultaneously to the cell monolayers and incubated for 1 h at 37 °C (5% CO2). Then, cells were washed with phosphate buffered saline (PBS, pH = 7.0) and CMC at 1% and 0.75% was added for HHV-1 and HHV-2, respectively. In post-infection treatment, virus was added to cell monolayer and incubated for 1 h at 37 °C (5% CO2). After incubation, washing was performed with PBS and molecule previously prepared in CMC 1% and 0.75% for HHV-1 and HHV-2 respectively, was added. In both treatments, NQ 4 was prepared at concentrations from 0.4 µg/mL to 3.1 µg/mL and the cell monolayers allowed to incubate for 72 h. Subsequently, cells were fixed and stained with a solution of 3.5% formaldehyde with 0.2% crystal violet, and the viral plaques were counted. Dextran sulfate (DS) was included as positive control in simultaneous assay and acyclovir (A) was the positive control in after infection treatment.

HHV-1 [4] = experiment: as above; type: cell-based, Human Herpesvirus 1; details: for Antiviral activity in simultaneous treatment, HHV-1: PFU, NQ 4 0.4–3.1 µg/mL, DS 5 µg/mL
Experimental: as §6, §7

[5] = test system: Human Herpesvirus type 2 (HHV-2); experiment: End-point titration technique (EPTT), anti-herpetic screening on infected Vero cells; type: cell-based, Human Herpesvirus 2; details: for Rf (reduction factor of the viral titer), HHV-2: 10 TCID50, 48 h
Experimental: as §2, §3

DENV-2 = experiment: Plaque reduction assay, simultaneous and post-infection treatment, BHK-21 cells; type: cell-based, Dengue virus type 2; details: for Antiviral activity in post-infection treatment, DENV-2: post-infective stages, ribavirin 3.7 µg/mL
Experimental: as §6
Against DENV, the effect of NQ 4 either simultaneously or post-infection was also evaluated by the plaque reduction assay as previously described. Concentrations employed for this assay were from 0.4 µg/mL to 1.6 µg/mL. In this test, BHK-21 cell monolayers grown in 24-well plates were infected with 100 PFU/well of DENV-2 and treatments were performed in the same way to describe for Herpesviruses. Moreover, the monolayers were incubated for 6 days, fixed and stained with a solution of 3.5% formaldehyde with 0.2% crystal violet, and the viral plaques were counted. Heparin (H) was included as a positive control in the simultaneous assay, and ribavirin (R) was the positive control in after infection treatment.

[6] = Vero ATCC CCL-81, 48 h, MTT, read-out: IC50 ± SD, Vero
[7] = non-tumoral Vero cells, data not shown, read-out: IC50 on Vero cells
[8] = post-infective stages, acyclovir 1.5 µg/mL
[9] = non-tumoral Vero cells, data not shown

Molecule: CCn1c(C)c(C(=O)OC)c2c1C(=O)c1cc3c(cc1C2=O)C(C)(C)CCC3 [HetQ 22]
- IC50 (Vero; [6]): 183 ± 15.9 µM
- IC50 (Jurkat): 71.7 ± 1.8 µM
- IC50 (HeLa): 73 ± 1.6 µM

Molecule: CC(C)=CCCc1ccc2c(c1)C(=O)C=CC2=O [NQ 1]
- IC50 (Jurkat): > 104 µM
- IC50 (HeLa): > 104 µM

Molecule: CC(C)CCCc1ccc2c(c1)C(=O)C(Cl)=C(Cl)C2=O [NQ 4]
- Rf (reduction factor of the viral titer), HHV-1 [1]: 1 × 10^2
- Rf (reduction factor of the viral titer), HHV-1 ([1]; listed as 4): 10^2
- minimal effective concentration ([1]; Human alphaherpesvirus 1, 1 TCID50, 48 h, tested 6.25-50 µg/mL, read-out: 1 TCID50: non-toxic concentration that showed viral reduction factor, HHV-1): 6.25 µg/mL
- IC50 (Vero; [6]): ≥ 643 µM
- IC50 (Vero; [7]): > 200 µg/mL
- EC50 (HHV-1 [2]): 0.38 µM
- EC50 (HHV-1 [2]; 2 h at 4 °C, 0.1–0.8 µg/mL): 0.12 µg/mL
- IC50 (Jurkat): 36.3 ± 2 µM
- IC50 (HeLa): 46.6 ± 3.3 µM
- Effect on HHV-1 viral entry (HHV-1 [3]): not significant
- EC50 (HHV-2; Human alphaherpesvirus 2, simultaneous treatment, read-out: EC50, anti-herpetic activity on pre-infective stages, HHV-2): < 0.4 µg/mL and < 1.28 µM
- Antiviral activity in post-infection treatment, HHV-2 (HHV-2; [8]): no activity
- Antiviral activity in simultaneous treatment, HHV-2 (HHV-2): anti-herpetic activity in all concentrations tested
- EC50 (HHV-1 [4]; Human alphaherpesvirus 1, simultaneous treatment, read-out: EC50, anti-herpetic activity on pre-infective stages, HHV-1): < 0.4 µg/mL and < 1.28 µM
- Antiviral activity in post-infection treatment, HHV-1 (HHV-1 [4]; [8]): no activity
- Antiviral activity in simultaneous treatment, HHV-1 (HHV-1 [4]): anti-herpetic activity in all concentrations tested
- Rf (reduction factor of the viral titer), HHV-2 [5]: 1 × 10^2
- Rf (reduction factor of the viral titer), HHV-2 ([5]; listed as 4): 10^2
- minimal effective concentration ([5]; Human alphaherpesvirus 2, 10 TCID50, 48 h, tested 6.25-50 µg/mL, read-out: 10 TCID50: non-toxic concentration that showed viral reduction factor, HHV-2): 12.5 µg/mL
- Antiviral activity in post-infection treatment, DENV-2 (DENV-2): no activity
- Concentration showing antiviral activity against DENV-2 (DENV-2; pre-infective stages): 5.1 µM
- Concentration showing significant antiviral activity against DENV-2 (DENV-2; simultaneous treatment (pre-infective stages), tested 0.4–1.6 µg/mL): 1.6 µg/mL

Molecule: CC(C)CCCc1ccc2c(c1)C(=O)C(Br)=C(Br)C2=O [NQ 5]
- IC50 (Vero; [6]): 15.7 ± 2.7 µM
- IC50 (Jurkat): 23.5 ± 1.7 µM
- IC50 (HeLa): 19.7 ± 0.3 µM

Molecule: NC(=O)c1ncn([C@@H]2O[C@H](CO)[C@@H](O)[C@H]2O)n1 [ribavirin, reference compound]
- IC50 (Vero; [7]): > 400 µg/mL
- Antiviral activity in post-infection treatment, DENV-2 (DENV-2): active

Molecule: Dextran sulfate [DS, reference compound]
- Rf (reduction factor of the viral titer), HHV-1 [1]: 10^2
- 1 TCID50: non-toxic concentration that showed viral reduction factor, HHV-1 ([1]; 48 h, tested 6.25-50 µg/mL): 0.5 µg/mL
- IC50 on Vero cells (Vero; [9]): > 400 µg/mL
- Antiviral activity in simultaneous treatment, HHV-2 (HHV-2): active
- Antiviral activity in simultaneous treatment, HHV-1 (HHV-1 [4]): active

Molecule: heparin [reference compound]
- IC50 on Vero cells (Vero; [9]): > 400 µg/mL
